Publication PMC8083904 (ACS infectious diseases, 2020)

How the values were obtained:
MEZ (Mtb malic enzyme) [1] = target: T1, MEZ (Mtb malic enzyme) (Mycobacterium tuberculosis, UniProt P9WK25)
MEZ (Mtb malic enzyme) [2] = target: T1, MEZ (Mtb malic enzyme); remark: listed apart in the source
MEZ (Mtb malic enzyme) [3] = target: T1, MEZ (Mtb malic enzyme); conditions: read-out: Km or K0.5

T1 sequence (P9WK25 whole entry): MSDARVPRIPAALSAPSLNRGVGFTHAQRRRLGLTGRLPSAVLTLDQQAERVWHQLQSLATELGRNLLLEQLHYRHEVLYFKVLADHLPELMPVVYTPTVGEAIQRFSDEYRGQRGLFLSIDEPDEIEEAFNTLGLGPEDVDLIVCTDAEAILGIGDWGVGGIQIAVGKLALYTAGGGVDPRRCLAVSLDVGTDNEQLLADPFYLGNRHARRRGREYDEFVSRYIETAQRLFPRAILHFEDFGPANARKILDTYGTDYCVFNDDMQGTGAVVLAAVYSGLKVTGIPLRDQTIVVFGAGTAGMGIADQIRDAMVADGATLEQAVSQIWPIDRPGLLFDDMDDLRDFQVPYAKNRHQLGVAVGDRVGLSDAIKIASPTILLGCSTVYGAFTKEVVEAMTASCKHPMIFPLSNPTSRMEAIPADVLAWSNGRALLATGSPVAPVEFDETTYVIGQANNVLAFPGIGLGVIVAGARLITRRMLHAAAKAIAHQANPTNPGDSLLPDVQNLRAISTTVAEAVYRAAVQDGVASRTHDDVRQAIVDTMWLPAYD

O=C(O)/C=C/C(=O)O [fumarate]
% activity of unmodified control (activation) (MEZ (Mtb malic enzyme) [1]): 361%

N[C@@H](CC(=O)O)C(=O)O [aspartate]
% activity of unmodified control (activation) (MEZ (Mtb malic enzyme) [1]): aspartate induced a smaller increase in activity, Figure 3A

O=C(O)CCC(=O)O [succinate]
% activity of unmodified control (activation) (MEZ (Mtb malic enzyme) [1]): 290%

O=C(O)CC(=O)C(=O)O [oxaloacetate]
% activity of control (inhibition) (MEZ (Mtb malic enzyme) [2]): 61%

O=C(O)C[C@H](O)C(=O)O [L-malate]
Km (MEZ (Mtb malic enzyme) [3]): 18.7 ± 0.5 mM
